# According to PubChem BioAssay AID2117 (The Scripps Research Institute Molecular Screening Center, 2009):
# What was measured:
# Test in all cases: ROR modulator nuclear receptor reporter panel, late-stage follow-up, ROR modulator project, cell-based, luciferase reporter (AID 2117)
# [1] = molecular target: Glucose-6-phosphatase catalytic subunit 1 (Homo sapiens) (UniProt P35575); details: ROR/LXR/VP16, G6Pase Promoter
# [2] = molecular target: Bile acid receptor (Homo sapiens) (UniProt Q96RI1); details: ROR/LXR/VP16, FXR, activation potency
# [3] = molecular target: Oxysterols receptor LXR-beta (Homo sapiens) (UniProt P55055); details: ROR/LXR/VP16, activation potency
# Sequence of Oxysterols receptor LXR-beta (Homo sapiens) (P55055 whole entry, looked up): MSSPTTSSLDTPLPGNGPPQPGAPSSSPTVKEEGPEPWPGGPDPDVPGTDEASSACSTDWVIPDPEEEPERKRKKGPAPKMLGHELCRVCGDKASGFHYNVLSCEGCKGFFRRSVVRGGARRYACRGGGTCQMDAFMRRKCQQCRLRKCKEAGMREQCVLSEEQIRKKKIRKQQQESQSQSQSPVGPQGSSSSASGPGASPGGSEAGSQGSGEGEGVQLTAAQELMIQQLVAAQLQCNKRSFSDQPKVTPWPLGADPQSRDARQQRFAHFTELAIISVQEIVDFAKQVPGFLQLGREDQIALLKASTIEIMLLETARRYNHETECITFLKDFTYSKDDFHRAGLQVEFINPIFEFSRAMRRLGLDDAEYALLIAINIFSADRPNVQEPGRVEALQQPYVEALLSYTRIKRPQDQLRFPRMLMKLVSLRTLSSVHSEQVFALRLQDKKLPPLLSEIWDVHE
# Sequence of Bile acid receptor (Homo sapiens) (Q96RI1 whole entry, looked up): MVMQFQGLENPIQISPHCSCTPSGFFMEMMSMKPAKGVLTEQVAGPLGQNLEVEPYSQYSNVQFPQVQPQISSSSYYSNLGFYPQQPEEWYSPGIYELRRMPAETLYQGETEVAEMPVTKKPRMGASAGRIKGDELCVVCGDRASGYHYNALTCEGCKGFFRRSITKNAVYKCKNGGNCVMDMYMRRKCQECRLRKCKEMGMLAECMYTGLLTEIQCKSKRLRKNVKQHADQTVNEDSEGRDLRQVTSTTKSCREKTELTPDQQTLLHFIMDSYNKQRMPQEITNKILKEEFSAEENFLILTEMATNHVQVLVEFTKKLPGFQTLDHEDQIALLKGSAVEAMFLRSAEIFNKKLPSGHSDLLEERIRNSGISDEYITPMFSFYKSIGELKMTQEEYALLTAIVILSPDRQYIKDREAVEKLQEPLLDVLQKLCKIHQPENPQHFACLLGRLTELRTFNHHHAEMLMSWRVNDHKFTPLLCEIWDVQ
# Sequence of Glucose-6-phosphatase catalytic subunit 1 (Homo sapiens) (P35575 whole entry, looked up): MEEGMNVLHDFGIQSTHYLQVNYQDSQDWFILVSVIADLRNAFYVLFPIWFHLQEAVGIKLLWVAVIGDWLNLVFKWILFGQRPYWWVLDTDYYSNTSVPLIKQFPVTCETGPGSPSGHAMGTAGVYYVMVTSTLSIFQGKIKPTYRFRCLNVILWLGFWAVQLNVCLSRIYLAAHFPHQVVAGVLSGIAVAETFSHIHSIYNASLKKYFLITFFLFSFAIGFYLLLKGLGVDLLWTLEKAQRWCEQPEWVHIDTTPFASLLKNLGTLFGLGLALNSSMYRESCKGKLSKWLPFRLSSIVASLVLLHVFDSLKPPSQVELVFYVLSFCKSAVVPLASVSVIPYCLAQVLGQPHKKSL
SMILES,IC50 [1] [µM],EC50 [2] [µM],EC50 [3] [µM]
CC(C)(C)c1ccc(S(=O)(=O)Nc2ccc(C(O)(C(F)(F)F)C(F)(F)F)cc2)cc1,8.4,> 20,> 20
COc1cccc(S(=O)(=O)Nc2ccc(C(O)(C(F)(F)F)C(F)(F)F)cc2)c1,–,> 20,18
O=S(=O)(Nc1ccc(C(O)(C(F)(F)F)C(F)(F)F)cc1)c1ccc(Cl)c2nonc12,–,> 20,12
O=S(=O)(Nc1ccc(C(O)(C(F)(F)F)C(F)(F)F)cc1)c1cccc2ccccc12,–,12,5.7
O=S(=O)(Nc1ccc(C(O)(C(F)(F)F)C(F)(F)F)cc1)c1cccc2cccnc12,–,> 20,> 6
